Data taken from patent US20260285853A1, “COMPOUNDS AND METHODS FOR MODULATING SPLICING” (REMIX THERAPEUTICS INC., priority 2023, published 2026).

Tests used:
Type in all cases: cell-based
MYB mRNA [1] = experiment: Gene panel canonical junction qPCR assay, decrease in CJ mRNA, Table 3; details: decrease in canonical junction (CJ) mRNA, gene panel qPCR, Table 3
How it was run: (§1)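 A673 (DMEM, 10% FBS, 15,000 cells/well) or K562 (IMDM, 10% FBS) cells treated 24 h at 37 °C with 11-point 3-fold dilutions, top 10 uM, DMSO ≤0.25%. Canonical exon-exon junction mRNA measured by RT-qPCR, normalized to GAPDH, GUSB or PPIA and DMSO (ΔΔCt); IC50 from 4-parameter logistic fit.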

SMN2 mRNA = experiment: as above; details: decrease in canonical junction (CJ) mRNA, gene panel qPCR, Table 3
How it was run: as §1

HTT mRNA [2] = experiment: as above; details: decrease in canonical junction (CJ) mRNA, gene panel qPCR, Table 3
How it was run: as §1

MYB mRNA [3] = experiment: Splicing RT-qPCR assay, canonical (CJ) and alternative (AJ) junction mRNA, K562 cells; details: Homo sapiens, K562.3 cells, 24 hours; for AC50: read-out: MYB AJ (AC50, increase in AJ mRNA); for IC50: read-out: MYB CJ (IC50, decrease in CJ mRNA)
Protocol: (§2) Compounds described herein were used to modulate RNA transcript abundance in cells. The expression of a target mRNA was measured by detecting the formation of an exon-exon junction in the canonical transcript (CJ). A compound mediated exon-inclusion event was detected by observing an increase in formation of a new junction with an alternative exon (AJ). Real-time qPCR assays were used to detect these splicing switches and interrogate the potency of various compounds towards different target genes. A high-throughput real time quantitative PCR (RT-qPCR) assay was developed to measure these two isoforms of the mRNA (CJ and AJ) for exemplary genes, such as HTT, SMN2, and MYB, together with a control housekeeping gene, GAPDH or GUSB or PPIA, used for normalization. Briefly, the A673 or K562 cell line was treated with various compounds described herein (e.g., compounds of Formula (I)). After treatment, the levels of the HTT, MYB, or SMN2 mRNA targets were determined from each sample of cell lysate by cDNA synthesis followed by qPCR.
(§3) • Cells-to-CT 1-step kit: ThermoFisher A25602, Cells-to-CT lysis reagent: ThermoFisher 4391851C, TaqMan™ Fast Virus 1-Step Master Mix: ThermoFisher 4444436 • GAPDH: VIC-PL, ThermoFisher 4326317E (Assay: Hs99999905_m1)—used for K562/suspension cell lines • GUSB: VIC-PL, ThermoFisher 4326320E (Assay: Hs99999908_m1)—used for K562/suspension cell lines • PPIA: VIC-PL, ThermoFisher 4326316E (Assay: Hs99999904_m1)—used for A673/adherent cell lines
(§4) The K562 cell line was cultured in IMDM with 10% FBS. For K562, cells were diluted with full growth media and plated in either a 96-well plate (50,000 cells in 50 uL media per well) or a 384-well plate (8,000-40,000 cells in 45 uL media per well). An 11-point 3-fold serial dilution of the compounds were made in DMSO then diluted in media in an intermediate plate. Compound was transferred from the intermediate plate to the cell plate with the top dose at a final concentration of 10 uM in the well. Final DMSO concentration was kept at or below 0.25%. Final volume was 100 uL for 96-well plate and 50 uL for 384-well plate. The cell plate was then placed in an incubator at 37° C. with 5% CO2 for 24 hours.
(§5) The cells were then gently washed with 50 uL-100 uL cold PBS before proceeding to addition of lysis buffer. 30 uL-50 uL of room temperature lysis buffer with DNAse I (and optionally RNAsin) was added to each well. Cells were shaken/mixed thoroughly at room temperature for 5-10 minutes for lysis to take place and then 3 uL-5 uL of room temperature stop solution was added and wells were shaken/mixed again. After 2-5 minutes, the cell lysate plate was transferred to ice for RT-qPCR reaction setup. The lysates could also be frozen at −80° C. for later use.
(§6) In some cases, a direct lysis buffer was used. An appropriate volume of 3× lysis buffer (10 mM Tris, 150 mM NaCl, 1.5%-2.5% Igepal and 0.1-1 U/uL RNAsin, pH 7.4) was directly added to either K562 or A673 cells in media and mixed by pipetting 3 times. The plates were then incubated at room temperature with shaking/rocking for 20-50 minutes to allow for lysis to take place. After this time, the cell lysate plate was transferred to ice to set up for the RT-qPCR reactions. The lysates could also be frozen at −80° C. for later use.
(§7) To set up 10 uL RT-qPCR reactions, cell lysates were transferred to 384-well qPCR plates containing the master mix according to the table below. The plates were sealed, gently vortexed, and spun down before the run. The volumes were adjusted accordingly in some instances where the reaction was carried in 20 uL. The table below summarizes the components of the RT-qPCR reactions:
(§8) The RT-qPCR reaction was performed using a QuantStudio (ThermoFisher) under the following fast cycling conditions. All samples and standards were analyzed at least in duplicate. In some instances, bulk room temperature (RT) step of 5-10 minutes was completed for all plates before proceeding with qPCR. […]

HTT mRNA [4] = experiment: as above; details: Homo sapiens, K562.3 cells, 24 hours; for AC50: read-out: HTT AJ (AC50, increase in AJ mRNA); for IC50: read-out: HTT CJ (IC50, decrease in CJ mRNA)
Protocol: as §2, §3, §4, §5, §6, §7, §8

[5] = tested on: SH-SY5Y (human neuroblastoma) cells; experiment: Cell viability, Cell Titer Glo 2.0 assay; details: read-out: Viability SHSY5Y.3 GI50
How it was run: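 Toxicity screen in SH-SY5Y cells. Compounds were serially diluted in DMSO and then in medium, giving 0.1% DMSO final. Viability was read with CellTiter-Glo 2.0 after 72 h at 37 °C, 5% CO2, against medium-only blank wells.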

SMILES | IC50 (MYB mRNA [1]) [nM] | IC50 (SMN2 mRNA) [nM] | IC50 (HTT mRNA [2]) [nM] | AC50 (MYB mRNA [3]) [nM] | IC50 (MYB mRNA [3]) [nM] | AC50 (HTT mRNA [4]) [nM] | IC50 (HTT mRNA [4]) [nM] | GI50 [5] [nM]
CN[C@@H]1CN(c2ccc(C(=O)Nc3cc(F)c4nc(C)cn4c3)c3nn(C)cc23)C[C@@H]1C [Compound 108, N-(8-fluoro-2-methyl-imidazo[1,2-a]pyridin-6-yl)-2-methyl-4-[(3S,4S)-3-methyl-4-(methylamino)-pyrrolidin-1-yl]indazole-7-carboxamide] | 100 to 1000 | < 100 | 1000 to 10000 | 100 to 1000 | 100 to 1000 | > 10000 | 1000 to 10000 | 1000 to 10000
COCCN[C@H]1CCN(c2ccc(C(=O)Nc3cc(F)c4nc(C)cn4c3)c3nn(C)cc23)C1 [Compound 112, N-(8-fluoro-2-methyl-imidazo[1,2-a]pyridin-6-yl)-4-[(3S)-3-(2-methoxyethylamino)pyrrolidin-1-yl]-2-methyl-indazole-7-carboxamide] | 100 to 1000 | < 100 | 1000 to 10000 | < 100 | 100 to 1000 | > 10000 | 1000 to 10000 | 1000 to 10000
Cc1cn2cc(NC(=O)c3ccc(N4CC[C@H](NCCO)C4)c4cn(C)nc34)cc(F)c2n1 [Compound 115, N-(8-fluoro-2-methylimidazo-[1,2-a]-pyridin-6-yl)-4-[(3S)-3-(2-hydroxy-ethylamino)-pyrrolidin-1-yl]-2-methylindazole-7-carboxamide] | 100 to 1000 | < 100 | 1000 to 10000 | 100 to 1000 | 100 to 1000 | 1000 to 10000 | 1000 to 10000 | 1000 to 10000
C#CCN[C@@H]1CCN(c2ccc(C(=O)Nc3cc(F)c4nc(C)cn4c3)c3nn(C)cc23)C1 [Compound 122] | 100 to 1000 | < 100 | 1000 to 10000 | 100 to 1000 | 100 to 1000 | 1000 to 10000 | 1000 to 10000 | 1000 to 10000
Cc1cn2cc(NC(=O)c3ccc(N4CC[C@@H](NCC56CC(CO5)C6)C4)c4cn(C)nc34)cc(F)c2n1 [Compound 124, N-(8-fluoro-2-methyl-imidazo[1,2-a]pyridin-6-yl)-2-methyl-4-[(3R)-3-(2-oxabicyclo[2.1.1]hexan-1-ylmethylamino)pyrrolidin-1-yl]indazole-7-carboxamide] | 1000 to 10000 | < 100 | > 10000 | 100 to 1000 | 1000 to 10000 | > 10000 | > 10000 | 1000 to 10000
Cc1cn2cc(NC(=O)c3ccc(N4CC[C@H](NCC56CC(CO5)C6)C4)c4cn(C)nc34)cc(F)c2n1 [Compound 125, N-(8-fluoro-2-methyl-imidazo[1,2-a]-pyridin-6-yl)-2-methyl-4-[(3R)-3-(2-oxabicyclo-[2.1.1]hexan-1-ylmethyl-amino)pyrrolidin-1-yl][6.1]-indazole-7-carboxamide] | 100 to 1000 | < 100 | > 10000 | 100 to 1000 | 100 to 1000 | > 10000 | > 10000 | 100 to 1000
CN[C@H]1C[C@H](C)N(c2ccc(C(=O)Nc3cc(F)c4nc(C)cn4c3)c3nn(C)cc23)C1 [Compound 127, N-(8-fluoro-2-methyl-imidazo[1,2-a]pyridin-6-yl)-2-methyl-4-[(2S,4S)-2-methyl-4-(methylamino)-pyrrolidin-1-yl]indazole-7-carboxamide] | > 10000 | 100 to 1000 | 1000 to 10000 | > 10000 | > 10000 | > 10000 | 1000 to 10000 | 1000 to 10000
CCNC1CCN(c2ccc(C(=O)Nc3cn4cc(C)nc4c(F)c3OC)c3[nH]ncc23)CC1 [Compound 170, 4-[4-(ethylamino)piperidin-1-yl]-N-(8-fluoro-7-methoxy-2-methylimidazo[1,2-a]pyridin-6-yl)-1H-indazole-7-carboxamide] | < 100 | < 100 | 1000 to 10000 | 100 to 1000 | < 100 | 1000 to 10000 | 1000 to 10000 | 100 to 1000
CCNC1CCN(c2ccc(C(=O)Nc3cn4cc(C)nc4c(F)c3OC)c3[nH]ccc23)CC1 [Compound 171, 4-[4-(ethylamino)piperidin-1-yl]-N-(8-fluoro-7-methoxy-2-methylimidazo[1,2-a]pyridin-6-yl)-1H-indole-7-carboxamide] | 1000 to 10000 | 1000 to 10000 | > 10000 | > 10000 | 1000 to 10000 | > 10000 | > 10000 | > 10000
CCNC1CCN(c2ccc(C(=O)Nc3cc(F)c4nc(C)cn4c3)c3[nH]ccc23)CC1 [Compound 172, 4-[4-(ethylamino)piperidin-1-yl]-N-(8-fluoro-2-methylimidazo[1,2-a]pyridin-6-yl)-1H-indole-7-carboxamide] | > 10000 | 1000 to 10000 | > 10000 | 1000 to 10000 | > 10000 | > 10000 | > 10000 | > 10000
COc1c(NC(=O)c2ccc(N3CCNCC3)c3cn[nH]c23)cn2cc(C)nc2c1F [Compound 211, N-(8-fluoro-7-methoxy-2-methylimidazo[1,2-a]pyridin-6-yl)-4-(piperazin-1-yl)-1H-indazole-7-carboxamide] | < 100 | < 100 | 100 to 1000 | < 100 | < 100 | 100 to 1000 | 100 to 1000 | 100 to 1000
Cc1cn2cc(C(=O)Nc3ccc(N4CCNCC4)c4cn[nH]c34)cc(F)c2n1 [Compound 214, 8-fluoro-2-methyl-N-(4-piperazin-1-yl-1H-indazol-7-yl) imidazo[1,2-a]pyridine-6-carboxamide] | > 10000 | > 10000 | 1000 to 10000 | > 10000 | > 10000 | > 10000 | 1000 to 10000 | > 10000
Cc1cn2cc(C(=O)Nc3ccc(N4C[C@@H](C)N[C@@H](C)C4)c4cn[nH]c34)cc(F)c2n1 [Compound 215, N-[4-[(3R,5S)-3,5-dimethylpiperazin-1-yl]-1H-indazol-7-yl]-8-fluoro-2-methyl-imidazo[1,2-a]pyridine-6-carboxamide] | > 10000 | 1000 to 10000 | > 10000 | > 10000 | > 10000 | > 10000 | > 10000 | > 10000
